Measurements as given in patent US4070245A, “Substrate for the quantitative determination of proteolytic enzymes” (Pentapharm A.G., priority 1975, dated 1978).
Structures can show the parent of a compound that is named as a salt. Where a SMILES comes first, the peptide text is derived from it. The star is where a group is joined. pNA = O=[N+]([O-])c1ccc(N*)cc1; Tos = Cc1ccc(S(=O)(=O)*)cc1; Cbz = O=C(OCc1ccccc1)*; Bz = O=C(c1ccccc1)*

B1: human plasmin (Homo sapiens) (protein)
chain 1: VVGGCVAHPHSWPWQVSLRTRFGMHFCGGTLISPEWVLTAAHCLEKSPRPSSYKVILGAHQEVNLEPHVQEIEVSRLFLEPTRKDIALLKLSSPAVITDKVIPACLPSPNYVVADRTECFITGWGETQGTFGAGLLKEAQLPVIENKVCNRYEFLNGRVQSTELCAGHLAGGTDSCQGDSGGPLVCFEKDKYILQGVTSWGLGCARPNKPGVYVRVSRFVTWIEGVMRNN
chain 2: KVYLSECKTGNGKNYRGTMSKTKNGITCQKWSSTSPHRPRFSPATHPSEGLEENYCRNPDNDPQGPWCYTTDPEKRYDYCDILECEEECMHCSGENYDGKISKTMSGLECQAWDSQSPHAHGYIPSKFPNKNLKKNYCRNPDRELRPWCFTTDPNKRWELCDIPRCTTPPPSSGPTYQCLKGTGENYRGNVAVTVSGHTCQHWSAQTPHTHNRTPENFPCKNLDENYCRNPDGKRAPWCHTTNSQVRWEYCKIPSCDSSPVSTEQLAPTAPPELTPVVQDCYHGDGQSYRGTSSTTTTGKKCQSWSSMTPHRHQKTPENYPNAGLTMNYCRNPDADKGPWCFTTDPSVRWEYCNLKKCSGTEASVVAPPPVVLLPDVETPSEEDCMFGNGKGYRGKRATTVTGTPCQDWAAQEPHRHSIFTPETNPRAGLEKNYCRNPDGDVGGPWCYTTNPRKLYDYCDVPQCAAPSFDCGKPQVEPKKCPGR
notes: 0.4 CU/ml of human plasmin

Columns and labels:
Solubility in water = assay type: physicochemical; conditions: for solubility: water
[1] = target: batroxobin (thrombin-like enzyme from venom of Bothrops moojeni) (Bothrops atrox, UniProt P04971); assay type: biochemical; conditions: pH 8.4
human ecarin-thrombin = target: T1, human ecarin-thrombin (Homo sapiens, UniProt P00734); experiment: Enzymatic release of p-nitroaniline from substrate by human ecarin-thrombin; assay type: biochemical; conditions: substrate concentration 10^-4 M; pH 8.4, ionic strength 0.15, 37° C
T1 construct: 0.28 NIH/ml of human ecarin-thrombin

human thrombin coagulase = human thrombin coagulase (Homo sapiens, UniProt P00734); experiment: Enzymatic release of p-nitroaniline from substrate by human thrombin coagulase (staphylo-thrombin); assay type: biochemical; conditions: substrate concentration 10^-4 M; pH 8.4, ionic strength 0.15, 37° C
bovine trypsin = target: T2, bovine trypsin (Bos taurus, UniProt P00760); experiment: Km and vmax from Lineweaver-Burk diagram, bovine trypsin; assay type: biochemical; conditions: value marked NF, ionic strength 0.15, pH 8.4, 37° C
T2 construct: 1.8 NF/ml of bovine trypsin
T2 sequence (P00760 24-246): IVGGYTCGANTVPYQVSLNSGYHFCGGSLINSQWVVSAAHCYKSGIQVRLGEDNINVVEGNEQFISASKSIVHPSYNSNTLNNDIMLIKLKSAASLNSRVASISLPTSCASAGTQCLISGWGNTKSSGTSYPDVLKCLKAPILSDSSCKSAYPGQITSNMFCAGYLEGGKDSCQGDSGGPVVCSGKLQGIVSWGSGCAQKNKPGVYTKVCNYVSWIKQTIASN
Method: (§1) As is evident from equation (2) constants Km and k3 determine the activity of the enzyme substrate for a given enzyme. For determining these constants the following procedure is followed:
(§2) The enzyme and the substrate are mixed in a buffer solution, and the reaction is followed spectrophotometrically for 2 to 30 minutes. The concentration of substrate [S] is varied, whereas the enzyme concentration [E] is kept constant. If the extinction (OD) (= optical density) is plotted in a co-ordinate system as a function of time, a curve is obtained the tangent of which (difference in extinction per minute, Δ OD/minute, from which the quantity in μmoles of pNA/min (v) can be calculated) at time zero corresponds to the ideal course of the hydrolysis. By means of this tangent the initial rate of the hydrolysis can be determined.
(§3) If 1/v is plotted against 1/[S], a Lineweaver-Burk diagram (cf. "Kurzes Lehrbuch der Biochemie" by P. KARSON, Georg Thieme-Verlag, Stuttgart, 1967., p. 70) is obtained from which vmax and Km can be determined graphically. [formula] were determined with N^α-Cbo-Gly-Pro-Arg-pNA.HCl (substrate according to Example 1) for human thrombin, human plasmin and bovine trypsin. Km and vmax were determined for the enzymes by means of the LineweaverBurk equation (the Lineweaver-Burk diagram is shown in FIG. 7 of the drawings attached to the specification). […]

human thrombin [2] = target: T3, human thrombin (Homo sapiens, UniProt P00734); experiment: Enzymatic release of split product NH2-R2 from chromogenic/fluorogenic substrate by human thrombin; assay type: biochemical; conditions: in words, from Table 1
T3 construct: 0.56 NIH/ml of human thrombin
Method: The degree of the enzymatic hydrolysis of the substrate, which is proportional to the quantity of p-Nitroaniline formed, can be easily determined by spectrophotometric measurement at 405 nm. […] The conditions are practically the same for the other substrates carrying a p-nitroanilino group as a chromogenic group. The spectrophotometric measurement was therefore, carried out in all cases at 405 nm.
The mixture was pre-incubated for 2 minutes at 37° C. […] The increase in the absorption was measured spectrophotometrically at 405 nm and continuously followed by means of a recording device. The measuring results listed in Tables 1 and 2 were all obtained under the test conditions defined above. The quantity of the formed split product NH2 --R^2 is a measure for the susceptibility of the substrate to the enzymes. […] For determining the quantity (nanomole) of p-napthylamine and 4-methoxy-β-naphthylamine (substrates XII to XV, XVIII and XIX), respectively, formed per minute the samples were irradiated in a fluorescence photometer with light having a wave length of 350 nm. The quantity of the formed split product was determined by measuring the intensity of the light emitted at 420 nm.

human plasmin = target: T4, human plasmin (Homo sapiens, UniProt P00747); experiment: Km and vmax from Lineweaver-Burk diagram, human plasmin; assay type: biochemical; conditions: value marked CU, ionic strength 0.15, pH 8.4, 37° C
T4 construct: 0.4 CU/ml of human plasmin
Method: as §1, §2, §3

human thrombin [3] = target: T3, human thrombin; experiment: Km and vmax from Lineweaver-Burk diagram, human thrombin; assay type: biochemical; conditions: ionic strength 0.15, pH 8.4, 37° C; for Km: tris-imidazole buffer, graphically from Lineweaver-Burk diagram; for vmax: value marked NIH
Method: as §1, §2
Km and vmax were determined for the enzymes by means of the LineweaverBurk equation (the Lineweaver-Burk diagram is shown in FIG. 7 of the drawings attached to the specification). […] According to the same principle Km and vmax were determined for the other enzymes. All determinations were carried out in trisimidazole buffer at an ionic strength of 0.15 and a pH of 8.4 at 37° C.

[4] = substrate: N=C(N)NCCC[C@H](NC(=O)[C@@H]1CCCN1C(=O)CNC(=O)OCc1ccccc1)C(=O)Nc1ccc([N+](=O)[O-])cc1; experiment: Km and vmax from Lineweaver-Burk diagram, human plasmin; assay type: biochemical; conditions: other: human plasmin, tris-imidazole buffer, ionic strength 0.15, pH 8.4, 37° C
Method: as §1, §2, §3

[5] = substrate: Cc1ccc(S(=O)(=O)NCC(=O)N2CCC[C@H]2C(=O)N[C@@H](CCCNC(=N)N)C(=O)Nc2ccc([N+](=O)[O-])cc2)cc1; experiment: as above; assay type: biochemical; conditions: other: human plasmin, tris-imidazole buffer, ionic strength 0.15, pH 8.4, 37° C
Method: as §1, §2, §3

Chain of batroxobin (thrombin-like enzyme from venom of Bothrops moojeni) (P04971 25-255 limits assumed): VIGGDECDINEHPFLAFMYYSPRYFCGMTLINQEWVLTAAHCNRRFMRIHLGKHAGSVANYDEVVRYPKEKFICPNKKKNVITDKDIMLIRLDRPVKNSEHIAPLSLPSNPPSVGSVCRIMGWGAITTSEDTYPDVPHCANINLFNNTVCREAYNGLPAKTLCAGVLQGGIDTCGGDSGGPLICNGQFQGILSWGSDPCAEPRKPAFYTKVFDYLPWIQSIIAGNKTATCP

Molecule | solubility (Solubility in water) [µg/mL] | Quantity of p-nitroaniline enzymatically split off from the substrate in 1 minute by the quantity of batroxobin corresponding to 1 NIH [1] [nmol] | Quantity of p-nitroaniline enzymatically split off from the substrate in 1 minute by the quantity of human ecarin-thrombin corresponding to 1 NIH (human ecarin-thrombin) [nmol] | Quantity of p-nitroaniline enzymatically split off from the substrate in 1 minute by the quantity of human thrombin coagulase corresponding to 1 NIH (human thrombin coagulase) [nmol] | vmax (bovine trypsin) [µmol/L] | susceptibility to human thrombin compared with N^α -Bz-Phe-Val-Arg-pNA.HCl (human thrombin [2]) | vmax (human plasmin) [µmol/L] | Km (human thrombin [3]) [µM] | vmax (human thrombin [3]) [µmol/L] | also measured
CC(C)[C@H](NC(=O)[C@H](Cc1ccccc1)NC(=O)c1ccccc1)C(=O)N[C@@H](CCCNC(=N)N)C(=O)Nc1ccc([N+](=O)[O-])cc1 [N^α -Bz-Phe-Val-Arg-pNA . HCl, N^α -Bz-Phe-Val-Arg-pNA.HCl, reference compound] (Bz-Phe-Val-Arg-pNA) | ~1000 | 3.26 | 30.7 | 102 |  |  |  |  |  | 
N=C(N)NCCC[C@H](NC(=O)[C@@H]1CCCN1C(=O)CNC(=O)OCc1ccccc1)C(=O)Nc1ccc([N+](=O)[O-])cc1 [Substrate I, N^α -Cbo-Gly-Pro-Arg-pNA.HCl] (Cbz-Gly-Pro-Arg-pNA) | > 4000 | 15.81 | 246.4 | 575 | 0.0427 | much higher | 0.673 | 57.1 | 0.0534 | solubility in water relative to Bz-Phe-Val-Arg-pNA.HCl (Solubility in water; ratio to prior art thrombin substrate): 4 times
CC(C)COC(=O)NCC(=O)N1CCC[C@H]1C(=O)N[C@@H](CCCNC(=N)N)C(=O)Nc1ccc([N+](=O)[O-])cc1 [Substrate XI, n^α -isobutyloxycarbonyl-Gly-Pro-Arg-p-Na.HCl] |  |  |  |  |  | much higher |  |  |  | 
Cc1ccc(S(=O)(=O)NCC(=O)N2CCC[C@H]2C(=O)N[C@@H](CCCNC(=N)N)C(=O)Nc2ccc([N+](=O)[O-])cc2)cc1 [Substrate VII, n^α -tos-Gly-Pro-Arg-pNA.HCl] (Tos-Gly-Pro-Arg-pNA) |  |  |  |  | 0.0297 | much higher | 0.618 | 17 | 0.0757 | 
N=C(N)NCCC[C@H](NC(=O)[C@@H]1CCCN1C(=O)CNS(=O)(=O)c1ccccc1)C(=O)Nc1ccc([N+](=O)[O-])cc1 [Substrate VIII, n^α -benzenesulfonyl-Gly-Pro-Arg-pNA.NCl] |  |  |  |  |  | much higher |  |  |  | 
B1 |  |  |  |  |  |  |  |  |  | Km [4]: 357 µM; Km [5]: 323 µM
